Values quoted from earlier work, collected in patent US20100216762A1, “Agonists and Antagonists of the S1P5 Receptor, and Methods of Use Thereof” (ABBOTT LABORATORIES, priority 2009, published 2010).

How the values were obtained:
[1] = spared-nerve injury model of neuropathic pain

FC(F)(F)c1cccc(-c2noc(-c3cc(-c4ccccc4)c(C(F)(F)F)s3)n2)c1 [SEW2871]
nociception in the formalin model: lack of activity

CCCCCCCCc1ccc(CCC(N)(CO)CO)cc1 [FTY720]
Aβ-induced migration of monocytes to sites of injury (monocytes): inhibits that migration | nociceptive behavior in the spared-nerve injury model [1]: reduced nociceptive behavior | nociception in the formalin model: anti-nociceptive
